Source: the NIST ThermoML archive (doi:10.1021/je060271a)

Conditions: 283.15 K, Liquid, Vibrating tube method

CCCCCCCC(=O)OCC(COC(=O)CCCCCCC)(COC(=O)CCCCCCC)COC(=O)CCCCCCC [pentaerythritol tetraoctanoate]
Conditions | mass density [kg/m3]
7440.8 kPa | 974.4
7459 kPa | 974.5
7477.1 kPa | 974.5
7498.5 kPa | 974.5
7516.3 kPa | 974.6
7534.1 kPa | 974.5
7555.6 kPa | 974.6
7574.3 kPa | 974.6
7592.6 kPa | 974.6
7614.9 kPa | 974.6
7633.7 kPa | 974.6
7652.5 kPa | 974.6
7671.5 kPa | 974.7
7693.9 kPa | 974.6
7713.6 kPa | 974.7
7732.4 kPa | 974.7
7751.9 kPa | 974.7
7774.9 kPa | 974.8
7794.2 kPa | 974.7
7813.7 kPa | 974.8
7837.5 kPa | 974.7
7857 kPa | 974.8
7877.2 kPa | 974.8
7897.6 kPa | 974.8
7917.4 kPa | 974.8
7942.4 kPa | 974.8
7963.7 kPa | 974.8
7984.1 kPa | 974.8
8005.2 kPa | 974.9
8025.4 kPa | 974.9
8049.7 kPa | 974.8
8070.2 kPa | 974.9
8092.5 kPa | 975.1
8117.1 kPa | 974.9
8138 kPa | 974.8
8159.8 kPa | 974.9
8184.3 kPa | 974.9
8205.1 kPa | 975
8227.9 kPa | 974.9
8252.3 kPa | 975
8274.2 kPa | 975
8300.2 kPa | 975.1
8322.1 kPa | 975.1
8344.2 kPa | 975.1
8367 kPa | 975.1
8393.5 kPa | 975
8415.8 kPa | 975.1
8438.6 kPa | 975
8465.5 kPa | 975.1
8487.9 kPa | 975.1
8516.4 kPa | 975.2
8539.8 kPa | 975.1
8563.6 kPa | 975.1
8586.9 kPa | 975.2
8615 kPa | 975.2
8638.6 kPa | 975.2
8666.6 kPa | 975.3
8690.7 kPa | 975.3
8714.3 kPa | 975.1
8744.3 kPa | 975.2
8768.6 kPa | 975.3
8793.6 kPa | 975.4
8822.8 kPa | 975.4
8847.1 kPa | 975.3
8872.8 kPa | 975.3
8898.8 kPa | 975.4
8929.2 kPa | 975.3
8953.6 kPa | 975.4
8985 kPa | 975.4
9011.4 kPa | 975.4
9037.2 kPa | 975.4
9063.1 kPa | 975.5
9095 kPa | 975.3
9120.9 kPa | 975.4
9152 kPa | 975.5
9179.6 kPa | 975.5
9206.9 kPa | 975.5
9238.7 kPa | 975.5
9266.5 kPa | 975.5
9295.1 kPa | 975.6
9323 kPa | 975.5
9356.5 kPa | 975.6
9383.9 kPa | 975.2
9416.6 kPa | 975.6
9445.6 kPa | 975.6
9474.8 kPa | 975.6
9509.1 kPa | 975.6
9537.9 kPa | 975.7
9567.4 kPa | 975.8
9602.7 kPa | 975.7
9633 kPa | 975.8
9662.7 kPa | 975.7
9692.8 kPa | 975.8
9730.2 kPa | 975.8
9760.9 kPa | 975.8
9797 kPa | 975.9
9827.4 kPa | 975.9
9859.1 kPa | 975.8
9890.1 kPa | 975.9
9927.8 kPa | 975.9
9959.5 kPa | 976
9991.2 kPa | 976
10030 kPa | 975.8
10063 kPa | 975.9
10103 kPa | 976
10135 kPa | 975.9
10169 kPa | 976
10203 kPa | 976.1
10243 kPa | 976.1
10276 kPa | 976
10311 kPa | 976.1
10352 kPa | 976
10387 kPa | 976.1
10421 kPa | 976.1
10464 kPa | 976.2
10500 kPa | 976.2
10539 kPa | 976.3
10575 kPa | 976.4
10612 kPa | 976.3
10655 kPa | 976.1
10692 kPa | 976.4
10736 kPa | 976.3
10773 kPa | 976.4
10813 kPa | 976.3
10851 kPa | 976.4
10890 kPa | 976.5
10936 kPa | 976.5
10974 kPa | 976.5
11022 kPa | 976.5
11063 kPa | 976.4
11103 kPa | 976.5
11143 kPa | 976.6
11183 kPa | 976.6
11232 kPa | 976.8
11272 kPa | 976.6
11322 kPa | 976.6
11363 kPa | 976.6
11404 kPa | 976.6
11456 kPa | 976.9
11499 kPa | 976.7
11542 kPa | 976.8
11594 kPa | 976.8
11639 kPa | 976.8
11683 kPa | 976.8
11736 kPa | 976.9
11780 kPa | 976.8
11826 kPa | 977
11881 kPa | 976.9
11928 kPa | 976.9
11974 kPa | 977.1
12022 kPa | 977
12078 kPa | 977
12126 kPa | 977.1
12174 kPa | 977.1
12234 kPa | 977.1
12283 kPa | 977.2
12334 kPa | 977.2
12394 kPa | 977.1
12445 kPa | 977.3
12496 kPa | 977.2
12548 kPa | 977.3
12611 kPa | 977.3
12662 kPa | 977.3
12708 kPa | 977.5
12785 kPa | 977.5
12834 kPa | 977.5
12903 kPa | 977.4
12955 kPa | 977.6
12988 kPa | 977.5
13021 kPa | 977.6
13054 kPa | 977.6
13095 kPa | 977.6
13128 kPa | 977.6
13170 kPa | 977.5
13204 kPa | 977.8
13238 kPa | 977.7
13272 kPa | 977.7
13314 kPa | 977.8
13350 kPa | 977.7
13385 kPa | 977.8
13427 kPa | 977.8
13463 kPa | 977.8
13506 kPa | 977.9
13542 kPa | 977.9
13579 kPa | 977.9
13615 kPa | 978
13660 kPa | 977.9
13697 kPa | 977.8
13734 kPa | 977.9
13779 kPa | 978
13816 kPa | 978.1
13863 kPa | 978
13902 kPa | 978
13942 kPa | 978.1
13982 kPa | 978.1
14031 kPa | 978.1
14074 kPa | 978.2
14118 kPa | 978.2
14166 kPa | 978.1
14190 kPa | 978.3
14210 kPa | 978.2
14230 kPa | 978.3
14254 kPa | 978.2
14274 kPa | 978.3
14298 kPa | 978.3
14319 kPa | 978.3
14340 kPa | 978.4
14360 kPa | 978.3
14384 kPa | 978.3
14405 kPa | 978.4
14426 kPa | 978.4
14446 kPa | 978.4
14472 kPa | 978.2
14492 kPa | 978.3
14514 kPa | 978.3
14539 kPa | 978.5
14560 kPa | 978.4
14582 kPa | 978.4
14608 kPa | 978.5
14625 kPa | 978.5
14650 kPa | 978.4
14671 kPa | 978.4
14693 kPa | 978.6
14718 kPa | 978.4
14740 kPa | 978.5
14765 kPa | 978.6
14787 kPa | 978.6
14809 kPa | 978.6
14835 kPa | 978.4
14857 kPa | 978.6
14879 kPa | 978.7
14906 kPa | 978.6
14928 kPa | 978.7
14950 kPa | 978.5
14976 kPa | 978.6
14999 kPa | 978.6
15022 kPa | 978.7
15044 kPa | 978.7
15071 kPa | 978.7
15093 kPa | 978.7
15116 kPa | 978.5
15143 kPa | 978.8
15166 kPa | 978.7
15189 kPa | 978.8
15217 kPa | 978.7
15240 kPa | 978.8
15263 kPa | 978.6
15291 kPa | 978.9
15314 kPa | 978.8
15338 kPa | 978.9
15366 kPa | 978.7
15389 kPa | 978.8
15417 kPa | 978.9
15441 kPa | 978.9
15465 kPa | 978.9
15488 kPa | 978.9
15517 kPa | 979
15542 kPa | 978.9
15566 kPa | 978.9
15595 kPa | 978.9
15620 kPa | 978.9
15644 kPa | 979
15673 kPa | 979
15698 kPa | 979
15722 kPa | 979
15752 kPa | 979.1
15776 kPa | 979.1
15801 kPa | 979.2
15831 kPa | 979
15856 kPa | 979.1
15882 kPa | 979.1
15912 kPa | 979.2
15938 kPa | 979.2
15963 kPa | 979.1
15994 kPa | 979.2
16019 kPa | 979.2
16045 kPa | 979.1
16076 kPa | 979.2
16102 kPa | 979.2
16128 kPa | 979.4
16159 kPa | 979.2
16185 kPa | 979.2
16212 kPa | 979.2
16238 kPa | 979.4
16270 kPa | 979.3
16296 kPa | 979.4
16328 kPa | 979.4
16355 kPa | 979.5
16382 kPa | 979.5
16409 kPa | 979.4
16441 kPa | 979.5
16468 kPa | 979.5
16501 kPa | 979.4
16528 kPa | 979.5
16556 kPa | 979.4
16591 kPa | 979.4
